The results in this text go back to US20190313614A1, “MRAP2 KNOCKOUTS” (EFFSTOCK, LLC, priority 2013, published 2019).

Assay [1] relates to melanocortin receptor (Mc4r and Mc3r). In words: Food intake following saline or MTII in Mrap2+/+ vs. Mrap2−/− mice. It counts as in vivo. Particulars: young (age 38-45 days) Mrap2−/− mice; 2 μg/g body weight, i.p. The text has this:
FIG. 5A depicts images of the appearance of male and female Mrap^+/+ and Mrap2^−/− mice. Left panel: External appearance on standard chow (age 175 days). Upper right: mesenteric fat in female Mrap^+/+ and Mrap2^−/− mice (age 175 days). Lower right: Brown adipose tissue (BAT) in female Mrap^+/+ and Mrap2^−/− mice (age 175 days). FIG. 5B depicts the level of serum leptin in Mrap2^+/+ and Mrap2^−/− mice. Left panel: Mrap2^+/+ vs. Mrap2^−/− ad libitum fed male (n=4 vs. 6) and female (n=8 vs. 4) mice (ages 302-349 days). Right panel: Mrap2^+/+ vs. Mrap2^−/− food-restricted, weight-matched male (n=4 vs. 6, weight=27.4±0.6 vs. 24.8±0.2 g), and female (n=4 vs. 6, weight=21.5±0.6 vs. 20.8±0.2 g) mice (ages 135-151 days). *p=0.005, **p<0.00001. FIG. 5C depicts the level of fasting serum insulin in Mrap2^+/+ and Mrap2^−/− male (n=4 vs. 6) and female (n=6 vs. 8) mice (ages 88-194 days). There was no significant difference between genotypes of either gender. FIG. 5D depicts the results of a glucose tolerance test (intraperitoneal) in Mrap2^+/+ and Mrap2^−/− male (n=4 vs. 6) and female (n=6 vs. 8) mice (ages 88-194 days). There was no significant difference between genotypes of either gender. FIG. 5E depicts levels of blood corticosterone in morning, evening, and following 30 minutes of restraint stress in Mrap2^+/+ and Mrap2^−/− male (n=4 vs. 3) and female (n=6 vs. 7) mice (ages 124-178 days). […]

Assay [2] addresses T1, Mc4r (Mus musculus, UniProt P56450).
T1 construct: expressed in transfected cells; host or cells: CHO cells (ATCC), transient transfection with pRC/CMV constructs, pCRE-Luc and pRL-TK
In words: Mc4r bioassay for Mrap2 effect: cAMP reporter (CRELuc) activity in transfected CHO cells. It counts as cell-based. Particulars: 0-10 nM αMSH, 5 h. An excerpt: FIGS. 3A-3C depict the interaction between Mrap2 and Mc4r. […] Top right, Cre DNA analysis by PCR. […] Molecular weight marker (M) on right (bp). Top left, Mrap2 DNA analysis in Sim1^CreBAC::Mrap2^f/f and Mrap2^f/f mice by PCR. Both genotypes contain floxed, intact Mrap2 DNA in CX, HT, and BS (314 bp in upper electropherogram, and 1013 bp in lower electropherogram, molecular weight markers on left). Only Sim1^CreBAC::Mrap2^f/f mice contain Mrap2^Del (400 bp, lower electropherogram), and only in HT and BS, but not in CX, consistent with fluorescent reporter data. No PCR products are present without added DNA (H2O). Bottom, Mrap2 mRNA expression in Sim1^CreBAC::Mrap2^f/f and Mrap2^f/f mice by RT-PCR. Both genotypes express floxed, intact Mrap2 mRNA in CX, HT, and BS (247 bp). Only Sim1^CreBAC::Mrap2^f/f mice express Mrap2^Del mRNA (147 bp), and only in HT. Global Mrap2^Del/Del mice express Mrap2^Del mRNA in all 3 sites. FIG. 3B depicts graphs of body weights of Mrap2^+/+ (male n=6, female n=11), Mrap2^−/− (male n=11, female n=7), Mrap2^f/f (male n=8, female n=12) and conditional Sim1^CreBAC::Mrap2^f/f (male n=8, female n=7) mice, all age 133 days. *p=0.04, **p=0.007, ***p=0.0002, ****p<0.0001. FIG. 3C depicts graphs of the effect of Mrap2 on Mc4r signaling. Left panel: Level of cAMP reporter activity (CRELuc) in CHO cells alone, or co-transfected with Mc4r, with or without Mrap2 or the Mrap2 knockout construct, Mrap2delE3, 5 h following exposure to 0-10 nM αMSH (n=3/group). Right panel: cAMP activity of these same constructs, expressed as percent induction following 0-10 nM αMSH, relative to 0 nM αMSH. *p<0.0001, Mc4r+Mrap2 vs. Mc4r at same [αMSH], by ANOVA. For most data points, error bars are obscured by symbols.
The coding sequences of mouse Mrap2 and Mc4r were isolated by PCR of brain cDNA (Mrap2) or genomic DNA (Mc4r) (Table S4), subcloned into TOPO-pCRII™ (Invitrogen, Carlsbad, Calif.), sequence-verified, and ligated into pRC/CMV (Invitrogen, Carlsbad, Calif.). Mrap2delE3, identical to the product of Mrap2^−/− mice, was also created and ligated into pRC/CMV. […]

Assay [3] addresses T2, Mc3r (Mus musculus, UniProt P33033).
T2 construct: expressed in transfected cells; host or cells: CHO cells
Description: Effect of Mrap2 on Mc3r signaling: cAMP reporter (CRELuc) activity in transfected CHO cells. It counts as cell-based. Particulars: Mc3r+Mrap2 vs. Mc3r, at the two highest αMSH doses (0-10 nM, 5 h). The text has this:
FIG. 6A depicts graphs of food intake (left panel) and body weight (right panel) in female Mrap2^flox/flox vs. Sim1^Cre: Mrap2^flox/flox mice. Sim1^Cre::Mrap2^flox/flox mice were either ad libitum-fed or pair-fed starting at age 70 days (upward arrow) to ad libitum-fed Mrap2^flox/flox mice. […] FIG. 6B depicts graphs of body weights in mice with combined knockout of Mrap2 and Mc4r. Top panels: Body weights in mixed Mrap^+/−::Mc4r^+/− genotypes (male Mrap^+/−::Mc4r^+/−, n=10; Mrap^+/+::Mc4r^+/−, n=10; Mrap^+/−::Mc4r^+/+, n=8; Mrap^+/+::Mc4r^+/+, n=9; female Mrap^+/−: Mc4r^−/−, n=9; Mrap^+/+::Mc4r^−/−, n=12; Mrap^+/−::Mc4r^+/+, n=8; Mrap^+/+::Mc4r^+/+, n=8). Bottom panels: Body weights in mixed Mrap^−/−::Mc4r^−/− genotypes (male Mrap^−/−:Mc4r^−/−, n=9; Mrap^+/+::Mc4r^−/−, n=8; Mrap^−/−: Mc4r^+/+, n=8; Mrap^+/+::Mc4r^+/+, n=9; female Mrap^−/−::Mc4r^−/−, n=7; Mrap^+/+:::Mc4r^−/−, n=8; Mrap^−/−::Mc4r^+/+, n=9; Mrap^+/+:::Mc4r^+/+, n=8). *p<0.05, **p<0.001 by ANOVA. FIG. 6C depicts the results of co-immunoprecipitation assay between Mrap2 and Mc4r. Transfection into CHO cells of Myc-tagged Mrap2 and GFP-tagged Mc4r was followed by anti-Myc immunoprecipitation and anti-GFP immunoblotting. […] Right panel: cAMP activity of these same constructs, expressed as percent induction following 0-10 nM αMSH, relative to 0 nM αMSH. *p<0.0001, Mc3r+Mrap2 vs. Mc3r at same [αMSH], by ANOVA. […]

T1 sequence (P56450 whole entry): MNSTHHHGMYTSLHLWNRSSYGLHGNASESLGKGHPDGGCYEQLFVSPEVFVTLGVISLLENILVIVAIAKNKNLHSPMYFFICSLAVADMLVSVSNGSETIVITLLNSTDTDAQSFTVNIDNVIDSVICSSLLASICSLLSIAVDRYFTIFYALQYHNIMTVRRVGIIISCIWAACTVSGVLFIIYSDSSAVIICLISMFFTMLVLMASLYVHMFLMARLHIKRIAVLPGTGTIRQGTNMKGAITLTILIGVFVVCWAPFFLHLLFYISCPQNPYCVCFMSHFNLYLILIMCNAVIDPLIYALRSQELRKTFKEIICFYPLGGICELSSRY
T2 sequence (P33033 whole entry): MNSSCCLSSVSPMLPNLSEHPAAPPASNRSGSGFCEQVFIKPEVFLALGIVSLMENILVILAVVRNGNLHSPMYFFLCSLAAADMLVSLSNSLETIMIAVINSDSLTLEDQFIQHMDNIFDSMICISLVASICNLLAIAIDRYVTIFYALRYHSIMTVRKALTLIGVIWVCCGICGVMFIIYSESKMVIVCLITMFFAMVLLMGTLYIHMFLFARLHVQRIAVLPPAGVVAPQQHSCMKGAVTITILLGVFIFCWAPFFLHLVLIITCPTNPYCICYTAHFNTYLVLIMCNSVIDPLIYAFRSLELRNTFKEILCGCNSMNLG

Take “acetyl-(Nle^4, Asp^5, D-Phe^7, Lys^10)-cyclo-[…]-MSH (4-10) amide acetate salt [MTII]”: in assay [1], the “anorectic response (food intake)” value is “intact anorectic response”.
With α-melanocyte stimulating hormone [αMSH], the “increase above basal PKA activity” value is reported as 5 fold in assay [2] (CHO cells co-transfected with Mc4r and Mrap2, relative to 0 nM αMSH); under 2 fold in assay [2] (CHO cells with Mc4r alone); under 2 fold in assay [2] (CHO cells with Mc4r plus the Mrap2 null construct Mrap2delE3). For the same substance, in assay [3], the “signaling through Mc3r (cAMP reporter activity)” value is given as “increased signaling”.
